According to patent US20250127896A1, “CHIMERIC TIM4 RECEPTORS AND USES THEREOF” (CERO THERAPEUTICS HOLDINGS, INC., priority 2021, published 2025):

Assays:
REC-1 cells [1] = test: Cytokine induction in CER T / REC-1 co-cultures (multiparametric ELISA); format: cell-based; conditions: for cytokine response (GrB, IFN-γ, TNF-α) with BTK inhibitor: ibrutinib-induced phosphatidylserine exposure
Protocol: FIGS. 16A-16H: Induction of Cytokines in Ibrutinib-Treated Co-Cultures of CER1183 and CER1234 T cells and REC-1 Target Cells. Samples depicted in bar graphs from left to right, untransduced, CER-1183, and CER-1234. FIG. 16A: TNFα induction. FIG. 16B: IL-2 induction. FIG. 16C: IFNγ. FIG. 16D: IL-5 induction. FIG. 16E: IL-6 induction. FIG. 16F: IL-10 induction. FIG. 16G: IL-4 induction. FIG. 16H: granzyme B induction.
Cytokine induction was assessed by multiparametric ELISA using conditioned supernatants harvested after 96 hours in the cytotoxicity assay described above.
CER T-cell activation was assessed by measuring induction of IFN-gamma by plate- and cell-based assays. Single induction plate assay: varying concentrations of phosphatidylserine (PS) or phosphatidylethanolamine (PE), a control membrane phospholipid not recognized by wild type TIM-4 (wtTIM-4), were coated onto high-binding tissue culture plates. CER T cells were added and IFN-γ levels were measured 24 hours after ligand exposure by ELISA. EC50 concentrations were determined by nonlinear regression (agonist vs. response-variable slope (4 parameters)). Induction by recursive stimulation plate assay: CER T cells were added to phosphatidylserine coated plates (2.5-20 μg/mL PS coating). Five days later, CER T cells were transferred to uncoated plates with fresh T cell optimizer media for 24 hours. Then, CER T cells were transferred again to a fresh PS coated plate. Supernatant was collected to assess IFN-γ induction by ELISA at various timepoints during re-stimulation (24, 72, and 120 hours). Cell-based assay: cytokine induction was assessed by multiparametric ELISA using conditioned supernatants harvested after 120 hours from the cytotoxicity assay described below.

REC-1 cells [2] = test: T-cell activation markers PD-1 and 4-1BB in co-culture with REC-1 cells (flow cytometry); format: cell-based; conditions: co-culture with REC-1 cells in the presence of 0.5 μM ibrutinib, 96 hours
Protocol: FIGS. 15A-15B: Induction of Cell-Surface Markers of T-Cell Activation in Ibrutinib-Treated Co-Cultures of CER1183 and CER1234 T cells and REC-1 Target Cells. Samples depicted in bar graphs from left to right, untransduced, CER-1183, and CER-1234. FIG. 15A: PD-1 expression in co-cultures. FIG. 15B: 4-1BB expression in co-cultures.
T-cell activation markers programmed death-1 (PD-1) and 4-1BB were evaluated on viable CD3+ T cells by flow cytometry using commercially available fluorochrome-conjugated antibodies. […] Assays were conducted 96 hours after initiation of co-culture of CER T cells with REC-1 cells.

phosphatidylserine (PS) = test: Recursive stimulation plate assay: IFN-γ on serial phosphatidylserine exposure; format: cell-based; conditions: 3 serial rounds
Source text: FIGS. 19A-19C: CER T cells are activated and produce IFN-γ in response to phosphatidylserine engagement in a cell-free in vitro system. FIG. 19A: IFN-γ production in response phosphatidylserine (PS). IFN-γ production was induced in CER-1236 and CER-1234 T cells stimulated with PS (FIG. 19A), but not with phosphatidylethanolamine (PE) (FIG. 19B). […] FIG. 19C: CER1236 T cells are capable of recursive stimulation in vitro. Recursive IFN-γ induction with 3 serial stimulations at the indicated time points following a 24-hour rest after the first stimulation.
FIG. 43 is a schematic depicting assay design for measuring CER1236 reactivation in response to stimulus by repeated phosphatidylserine stimulation of CER1236 T cells and measurement of IFNγ production.
CER T-cell activation was assessed by measuring induction of IFN-gamma by plate- and cell-based assays. […] CER T cells were added and IFN-γ levels were measured 24 hours after ligand exposure by ELISA. EC50 concentrations were determined by nonlinear regression (agonist vs. response-variable slope (4 parameters)). […] Cell-based assay: cytokine induction was assessed by multiparametric ELISA using conditioned supernatants harvested after 120 hours from the cytotoxicity assay described below.

Jeko1 TMEM30A−/− cells = conditions: mantle cell lymphoma mouse model
Protocol: Using an engineered TMEM30a phospholipid flippase knockout JeKo-1 lymphoma cell line with constitutive phosphatidylserine exposure (JeKo-1 PS^+), tumor fragment uptake, cytotoxicity, cytokine secretion (GrB, IFN-γ, and TNF-α), and APC-like activity were evaluated in vitro. JeKo-1 PS^+ cells were labeled with the pH-sensitive pHrodo™ dye to quantify the uptake of tumor cells. Chimeric Tim4 receptor-T cells were tested for antigen-display capacity by evaluating autologous HPV E7 TCR T cell activation and proliferation following Chimeric Tim4 receptor-T cell co-culture with JeKo PS+ cells and HPV-derived peptides. Finally, Chimeric Tim4 receptor T cell anti-tumor activity was examined in xenografted MCL models. Statistical analysis was performed using 2-way ANOVA.

NSCLC H1975 cells [3] = test: H1975 NSCLC cell growth with CER1236 T cells and osimertinib (Incucyte); format: cell-based; conditions: 100 nM osimertinib 24 h, then 4.88 nM, E:T 0.25:1, 120 h
Protocol: FIG. 39: Graph showing NSCLC H1975 cell growth for cells pretreated with 100 nM osimertinib or vehicle and then co-cultured with CER1236 T cells.
CER1236 T cells were tested in combination with EGFR tyrosine kinase inhibitor osimertinib on a non-small cell lung cancer (NSCLC) cell line. Ten-thousand NSCLC H1975 cells were cultured for 24 h with 100 nM osimertinib or vehicle (DMSO) and then co-cultured with 2500 CER1236 T cells at an Effector:Target cell ratio of 0.25:1 in the presence or absence of 4.88 nM osimertinib or vehicle. Tumor cell growth was monitored with indicated for 120 h in an Incucyte assay.

NSCLC H1975 cells [4] = test: T cell expansion in H1975 co-culture with osimertinib (quantitative flow cytometry); format: cell-based
Protocol: FIG. 41: Bar graphs showing fold expansion of total CD3+ T cells (untransduced+vehicle, untransduced+osimertinib, CER1236+vehicle, CER1236+osimertinib) determined by quantitative flow cytometry using quantitation beads over a time course (48 hrs, 96 hrs, 120 hrs, and 144 hrs).
FIG. 42: Flow cytometry plots measuring CD3+ cells (y-axis) and H1975 cell (x-axis) in co-culture experiments with H1975 cells pretreated with vehicle or osimertinib ([…], 19.53 nM) and untransduced T cells (top row) or CER1236 T cells (bottom row).
Proliferation of CER1236 T cells co-cultured with H1975 NSCLC cells pre-treated with osimertinib or vehicle was also measured. […] Total CD3+ T cells fold expansion was determined by quantitative flow cytometry using quantitation beads over a time course (48 hrs, 96 hrs, 120 hrs, and 144 hrs). Experiment was performed twice, once with 5,000 target H1975 cells and once with 10,000 target H1975 cells.

| Substance | IL-2, IL-4 and IL-6 (REC-1 cells [1]; co-culture with REC-1 cells, 0.5 μM ibrutinib) | cytokine induction: TNF-α, IFN-γ, IL-10, IL-5, granzyme B (REC-1 cells [1]; co-culture with REC-1 cells, 0.5 μM ibrutinib, 96 hours) | cytokine response (GrB, IFN-γ, TNF-α) with BTK inhibitor (REC-1 cells [1]) | cytokine response (GrB, IFN-γ, TNF-α) with BTK inhibitor (REC-1 cells [1]; listed as CER1234) | PD-1 and 4-1BB expression on the T-cell surface (REC-1 cells [2]) | IFN-γ response upon serial phosphatidylserine exposure (phosphatidylserine (PS)) | anti-tumor effect / tumor burden (Jeko1 TMEM30A−/− cells) | H1975 tumor cell growth, combination with osimertinib (NSCLC H1975 cells [3]) | CD3+ T cell proliferation and H1975 cell numbers, osimertinib-treated H1975 (NSCLC H1975 cells [4]; 120 hours, 4:1 effector:target ratio, flow cytometry) | total CD3+ T cells fold expansion, combination with osimertinib (NSCLC H1975 cells [4]; E:T 1:4, 48, 96, 120, 144 hrs) |
| --- | --- | --- | --- | --- | --- | --- | --- | --- | --- | --- |
| CER-1234: chimeric Tim4 receptor: Tim4 binding domain-CD28tm-CD28-TLR2 TIR-CD3z, SEQ ID NO:18; tested as transduced T cells | nominally increased | induced | production of Th1 cytokines | enhances CER1234 T cell cytokine response | increased PD-1 and 4-1BB expression |  |  |  |  |  |
| CER-1236: chimeric Tim4 receptor: Tim4 binding domain-CD28tm-CD28-CD3z-TLR2 TIR, SEQ ID NO:19; tested as transduced T cells |  |  |  |  |  | elicited repeated IFN-γ response upon 3 serial rounds of exposure to phosphatidylserine | showed anti-tumor effect | synergizes to inhibit H1975 NSCLC cells in vitro | CD3+ T cell proliferation was highest and H1975 cell numbers lowest | osimertinib drives CER1236 T cell proliferation |
